By AC50 is commonly meant the midpoint of the concentration-response curve, whichever way the signal moves. One may read the IC50 as the concentration needed to halve the response being measured. As a reminder, the EC50 is the concentration giving half of the maximal effect.

These results are taken from ChEMBL document CHEMBL1201862, “PubChem BioAssay data set” (2004).

The target in assay [1] is Cyclin-dependent kinase 5/CDK5 activator 1 (Homo sapiens, UniProt Q00535). Briefly: blockade of human CDK5 activity – biochemical, cherry-picked samples, set 2, dose response (AID 504545).
Sequence of Cyclin-dependent kinase 5/CDK5 activator 1 (Q00535 whole entry): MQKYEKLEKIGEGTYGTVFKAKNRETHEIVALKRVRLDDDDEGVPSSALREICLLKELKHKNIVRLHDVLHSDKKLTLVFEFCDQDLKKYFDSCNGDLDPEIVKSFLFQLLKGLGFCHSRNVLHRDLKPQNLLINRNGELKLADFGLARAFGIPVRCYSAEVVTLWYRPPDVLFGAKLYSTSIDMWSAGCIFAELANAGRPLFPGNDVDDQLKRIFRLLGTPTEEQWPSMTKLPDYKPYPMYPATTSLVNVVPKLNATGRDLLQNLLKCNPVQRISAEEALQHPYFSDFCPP
Sequence of Cyclin-dependent kinase 5/CDK5 activator 1 (Q15078 whole entry, further chain): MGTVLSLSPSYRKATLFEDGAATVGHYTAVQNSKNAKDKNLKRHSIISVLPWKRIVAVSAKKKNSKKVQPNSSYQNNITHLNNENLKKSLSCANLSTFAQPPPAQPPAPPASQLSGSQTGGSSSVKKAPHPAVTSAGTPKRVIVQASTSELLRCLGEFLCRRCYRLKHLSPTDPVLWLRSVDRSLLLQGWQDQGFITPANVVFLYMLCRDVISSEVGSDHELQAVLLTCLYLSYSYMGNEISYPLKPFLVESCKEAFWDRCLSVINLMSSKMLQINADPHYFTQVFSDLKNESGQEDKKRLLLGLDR
For assay [2], the target named is T1, Voltage-gated N-type calcium channel alpha-1B subunit/Amyloid beta A4 precursor protein-binding family A member 1 (Homo sapiens, UniProt Q00975+Q02410). Type of assay: protein assay.
T1 sequence (Q00975 whole entry): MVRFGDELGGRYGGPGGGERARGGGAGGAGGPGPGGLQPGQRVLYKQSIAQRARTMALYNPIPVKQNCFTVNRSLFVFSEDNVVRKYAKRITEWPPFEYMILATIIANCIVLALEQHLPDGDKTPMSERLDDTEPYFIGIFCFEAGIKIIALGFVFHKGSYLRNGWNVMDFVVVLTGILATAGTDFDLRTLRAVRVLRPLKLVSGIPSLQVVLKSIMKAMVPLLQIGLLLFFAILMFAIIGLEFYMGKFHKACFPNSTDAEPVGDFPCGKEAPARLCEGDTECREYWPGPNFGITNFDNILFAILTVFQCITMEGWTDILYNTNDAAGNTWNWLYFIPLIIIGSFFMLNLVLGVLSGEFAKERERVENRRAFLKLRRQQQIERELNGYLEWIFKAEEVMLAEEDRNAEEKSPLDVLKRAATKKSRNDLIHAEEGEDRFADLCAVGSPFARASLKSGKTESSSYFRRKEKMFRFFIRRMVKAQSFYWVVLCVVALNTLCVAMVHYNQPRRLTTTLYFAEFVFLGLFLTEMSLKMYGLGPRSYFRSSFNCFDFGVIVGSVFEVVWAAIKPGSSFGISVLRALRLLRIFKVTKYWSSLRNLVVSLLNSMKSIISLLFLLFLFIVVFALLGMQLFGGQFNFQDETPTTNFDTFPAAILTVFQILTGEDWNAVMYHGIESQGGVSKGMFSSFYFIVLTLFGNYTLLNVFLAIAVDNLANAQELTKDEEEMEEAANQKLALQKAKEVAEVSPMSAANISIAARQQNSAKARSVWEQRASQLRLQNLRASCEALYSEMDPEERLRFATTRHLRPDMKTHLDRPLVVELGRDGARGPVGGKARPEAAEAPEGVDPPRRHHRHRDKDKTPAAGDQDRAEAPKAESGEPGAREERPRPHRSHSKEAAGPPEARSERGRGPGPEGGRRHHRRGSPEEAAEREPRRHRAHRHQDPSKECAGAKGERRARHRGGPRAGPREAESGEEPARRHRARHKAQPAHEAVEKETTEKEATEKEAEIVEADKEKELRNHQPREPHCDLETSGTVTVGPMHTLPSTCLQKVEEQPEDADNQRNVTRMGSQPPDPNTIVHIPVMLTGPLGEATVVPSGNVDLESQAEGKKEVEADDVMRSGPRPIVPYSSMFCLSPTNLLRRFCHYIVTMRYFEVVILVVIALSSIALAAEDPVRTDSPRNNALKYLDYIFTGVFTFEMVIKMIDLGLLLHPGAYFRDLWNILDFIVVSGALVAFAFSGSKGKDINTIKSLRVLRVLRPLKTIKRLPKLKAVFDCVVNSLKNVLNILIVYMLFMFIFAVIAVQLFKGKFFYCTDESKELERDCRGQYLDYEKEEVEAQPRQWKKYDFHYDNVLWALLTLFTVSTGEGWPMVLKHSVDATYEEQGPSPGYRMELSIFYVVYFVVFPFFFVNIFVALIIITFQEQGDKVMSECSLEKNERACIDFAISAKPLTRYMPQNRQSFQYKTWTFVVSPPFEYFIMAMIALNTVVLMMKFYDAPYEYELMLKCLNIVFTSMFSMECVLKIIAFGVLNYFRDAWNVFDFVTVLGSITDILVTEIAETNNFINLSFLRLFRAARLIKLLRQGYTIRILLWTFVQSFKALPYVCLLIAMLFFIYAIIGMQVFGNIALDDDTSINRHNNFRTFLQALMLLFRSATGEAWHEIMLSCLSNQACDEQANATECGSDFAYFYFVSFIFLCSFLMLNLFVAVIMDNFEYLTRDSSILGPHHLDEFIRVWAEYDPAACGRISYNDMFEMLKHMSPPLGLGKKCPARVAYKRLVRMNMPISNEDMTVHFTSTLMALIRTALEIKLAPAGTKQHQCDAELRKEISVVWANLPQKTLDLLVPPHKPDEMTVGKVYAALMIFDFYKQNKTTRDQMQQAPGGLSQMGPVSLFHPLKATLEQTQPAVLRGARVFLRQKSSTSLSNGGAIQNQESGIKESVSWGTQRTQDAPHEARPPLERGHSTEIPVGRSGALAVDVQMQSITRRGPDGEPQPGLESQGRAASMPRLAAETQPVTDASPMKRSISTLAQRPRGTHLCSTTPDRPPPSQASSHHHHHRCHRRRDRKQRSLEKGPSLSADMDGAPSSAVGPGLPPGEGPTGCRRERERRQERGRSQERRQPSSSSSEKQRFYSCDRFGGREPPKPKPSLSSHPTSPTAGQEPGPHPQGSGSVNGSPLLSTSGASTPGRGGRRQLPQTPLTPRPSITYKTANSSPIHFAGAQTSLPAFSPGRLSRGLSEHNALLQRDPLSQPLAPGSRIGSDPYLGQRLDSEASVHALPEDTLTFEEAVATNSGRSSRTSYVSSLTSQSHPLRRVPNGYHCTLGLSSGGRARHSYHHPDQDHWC
T1 sequence (Q02410 whole entry): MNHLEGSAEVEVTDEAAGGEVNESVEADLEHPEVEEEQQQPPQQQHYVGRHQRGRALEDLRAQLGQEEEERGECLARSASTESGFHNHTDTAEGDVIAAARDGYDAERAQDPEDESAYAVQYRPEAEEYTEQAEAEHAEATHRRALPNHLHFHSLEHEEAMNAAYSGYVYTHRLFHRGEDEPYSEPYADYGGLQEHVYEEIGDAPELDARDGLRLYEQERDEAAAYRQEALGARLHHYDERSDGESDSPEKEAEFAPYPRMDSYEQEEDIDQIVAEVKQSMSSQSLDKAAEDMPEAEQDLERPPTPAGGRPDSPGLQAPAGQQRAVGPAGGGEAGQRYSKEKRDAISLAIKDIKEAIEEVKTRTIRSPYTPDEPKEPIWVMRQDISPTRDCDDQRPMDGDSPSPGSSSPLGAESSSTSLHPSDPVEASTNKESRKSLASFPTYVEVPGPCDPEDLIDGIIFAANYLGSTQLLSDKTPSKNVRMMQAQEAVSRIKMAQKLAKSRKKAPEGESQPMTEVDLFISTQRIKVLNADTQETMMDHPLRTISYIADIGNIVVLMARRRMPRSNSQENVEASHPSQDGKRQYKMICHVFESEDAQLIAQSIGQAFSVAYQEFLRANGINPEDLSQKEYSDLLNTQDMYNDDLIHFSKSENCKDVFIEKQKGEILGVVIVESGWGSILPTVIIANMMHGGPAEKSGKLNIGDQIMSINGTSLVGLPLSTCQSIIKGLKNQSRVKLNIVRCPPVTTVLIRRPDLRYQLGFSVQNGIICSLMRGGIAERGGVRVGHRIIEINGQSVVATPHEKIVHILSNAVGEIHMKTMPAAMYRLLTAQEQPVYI
For a further assay, the target named is Beta-galactosidase (Escherichia coli, UniProt Q8VNN2). Description: detection-enzyme interference by beta-gal modulators – biochemical, E. coli enzyme, set 3, artefact control for CCR6 antagonist project, dose response (AID 504712). Type of assay: functional.
Assay [3] is described as follows: Luminescence Cell-Based Dose Confirmation HTS to Identify Inhibitors of Platelet Dense Granule Release. [Related pubchem assays: 1663 (Primary HTS), 1678 (Summary of Project)]. Format: functional.
Another assay has as its target Beta Lactamase (Pseudomonas aeruginosa, UniProt Q932Y6). Briefly: BLA reporter interference, concentration series – BLA reporter cells, FRET fluorescence, artefact control for NOD2-RIPK2 interaction inhibitor project, dose response (AID 651552). Format: functional, cell-based.
The target of assay [4] is Luciferin 4-monooxygenase (Photinus pyralis, UniProt P08659). Briefly: inhibition of purified Photinus pyralis luciferase – biochemical, luminescence, dose response (AID 1891).
Assay [5] concerns the target T1, Voltage-gated N-type calcium channel alpha-1B subunit/Amyloid beta A4 precursor protein-binding family A member 1. Type of assay: protein assay. This is another data set of the same source.
The nature of assay [6]: Fluorescence-based cell-based high throughput dose response assay for inhibitors of the interaction of nucleotide-binding oligomerization domain containing 2 (NOD2) and the receptor-interacting serine-threonine kinase 2 (RIPK2). Format: functional. The conditions noted are these: Homo sapiens.
The subject of assay [7] is BJ. Description: BJ-TERT fibroblast viability loss – cell-based, RAS-independent, luminescence, dose response (AID 1933). Format: functional. The conditions noted are these: Homo sapiens.
For assay [8], the system named is BJ. Briefly: cells. The settings on record: Homo sapiens. Type of assay: functional, cell-based.
In assay [9] the target is NACHT, LRR and PYD domains-containing protein 3 (Homo sapiens, UniProt Q96P20). Briefly: NALP3 inhibitors in yeast, dose response, luminescent (AID 488799). Type of assay: functional.
Assay [10] addresses Sphingosine 1-phosphate receptor 2 (Homo sapiens, UniProt O95136). Description: Dose Response Cell Based Assay for Antagonists of the S1P2 Receptor. [Related pubchem assays: 856, 736 ]. Format: functional.
Assay [11] relates to BJ. Briefly: BJ-TERT-LT-ST fibroblast viability loss – cell-based, RAS-independent, luminescence, dose response (AID 1935).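 Further: BJ fibroblasts immortalized with TERT plus LT and ST oncogenes.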 Format: functional. The settings on record: Homo sapiens.
Assay [12] in a line: HEK-293T viability loss after treatment – luminescence, T-cell screen hits, cytotoxicity control for TCR NF-kB inhibitor project, dose response (AID 489026).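 Further: cells exposed to compound about 14 hours before the viability readout.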 Format: functional, cell-based.
Assay [13] is described as follows: viability of PTEN-deleted HCT116 cells – cell-based, HCT116 PTEN knockout, dose response (AID 1047).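 Further: HCT116 colon tumor cells with PTEN knocked out; cells exposed to compound for 60 hours before readout; potency for loss of cell viability measured by luminescence.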 Type of assay: functional.
Assay [14] is described as follows: DRD fibroblast viability loss – cell-based, non-viral oncogenic, luminescence, dose response (AID 1934). Type of assay: functional. The settings on record: Homo sapiens.
Assay [15] addresses T2, Calpain-2 catalytic subunit (Sus scrofa, UniProt P43367).
T2 sequence (P43367 whole entry): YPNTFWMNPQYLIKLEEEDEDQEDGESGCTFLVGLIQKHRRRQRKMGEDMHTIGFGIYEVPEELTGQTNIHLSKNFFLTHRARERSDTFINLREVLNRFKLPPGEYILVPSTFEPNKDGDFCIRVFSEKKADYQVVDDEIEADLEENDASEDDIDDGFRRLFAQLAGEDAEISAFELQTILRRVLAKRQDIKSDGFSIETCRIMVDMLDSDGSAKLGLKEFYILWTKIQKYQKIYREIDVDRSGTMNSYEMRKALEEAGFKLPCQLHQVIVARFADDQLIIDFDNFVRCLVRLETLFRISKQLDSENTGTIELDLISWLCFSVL
Description: m-calpain protease blockers, concentration series – biochemical, fluorogenic peptide substrate, dose response (AID 1420). Format: functional.

Assay [16] is described as follows: viability of HCT116 lacking mutant beta-catenin – cell-based, human colon tumor, dose response (AID 1045).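 Further: HCT116 colon tumor cells with beta catenin knocked out; cells exposed to compound for 60 hours.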 Format: functional.
Assay [17] deals with Signal transducer and activator of transcription 3 (Homo sapiens, UniProt P40763). Description: STAT3 activation with BCL3 mRNA and toxicity – cell-based, […], BCL3 qPCR, cytotoxicity, late-stage follow-up, panel member STAT3 Activation (AID 2049).
A further assay has as its target Hexokinase (Trypanosoma brucei, UniProt Q38C41). Description: Confirmation assay for inhibitors of Trypanosoma brucei hexokinase 1-Analogue-first series. [Related pubchem assays (depositor defined):AID1430, AID1632, AID2516, AID2560, AID2579, AID2600, AID449725, AID492951]. Format: functional.
The target of another assay is Wee1-like protein kinase (Homo sapiens, UniProt P30291). Description: HeLa cell cycle G2/M accumulation – FACS, mechanism study for Wee1 degradation inhibitor project, late-stage follow-up, panel member Wee1 Degradation (AID 2088).
Assay [18] concerns the target G2/mitotic-specific cyclin-B1 (Homo sapiens, UniProt P14635). Briefly: HeLa cell cycle G2/M accumulation – FACS, mechanism study for Wee1 degradation inhibitor project, late-stage follow-up, panel member Cyclin B Degradation (AID 2088).
The nature of assay [19]: microbe, parasite or virus in culture. The conditions noted are these: Mycobacterium tuberculosis. Type of assay: functional.
Assay [20] in a line: Cytotoxicity screening for potential Inhibitors of Bacterial Capsule Biogenesis. [Related pubchem assays (depositor defined):AID488970]. Format: functional.
Assay [21] concerns the target Heat shock protein HSP 90-alpha (Homo sapiens, UniProt P07900). Format: functional, organism-based.

Structures are written as SMILES. The source made the active and inactive calls.

Sequence of Hexokinase (Q38C41 whole entry): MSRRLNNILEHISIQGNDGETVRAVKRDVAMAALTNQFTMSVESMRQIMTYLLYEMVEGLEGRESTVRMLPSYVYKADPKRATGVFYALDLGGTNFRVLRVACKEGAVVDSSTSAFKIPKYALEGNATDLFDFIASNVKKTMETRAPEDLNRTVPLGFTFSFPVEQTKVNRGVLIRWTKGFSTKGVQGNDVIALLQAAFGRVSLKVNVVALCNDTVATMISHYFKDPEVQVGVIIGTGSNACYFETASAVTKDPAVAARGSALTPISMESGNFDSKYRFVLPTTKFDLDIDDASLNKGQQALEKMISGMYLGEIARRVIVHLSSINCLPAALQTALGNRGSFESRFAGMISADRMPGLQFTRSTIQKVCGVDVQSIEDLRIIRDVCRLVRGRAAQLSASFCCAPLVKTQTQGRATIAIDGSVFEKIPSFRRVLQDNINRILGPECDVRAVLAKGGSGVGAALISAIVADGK
Sequence of G2/mitotic-specific cyclin-B1 (P14635 whole entry): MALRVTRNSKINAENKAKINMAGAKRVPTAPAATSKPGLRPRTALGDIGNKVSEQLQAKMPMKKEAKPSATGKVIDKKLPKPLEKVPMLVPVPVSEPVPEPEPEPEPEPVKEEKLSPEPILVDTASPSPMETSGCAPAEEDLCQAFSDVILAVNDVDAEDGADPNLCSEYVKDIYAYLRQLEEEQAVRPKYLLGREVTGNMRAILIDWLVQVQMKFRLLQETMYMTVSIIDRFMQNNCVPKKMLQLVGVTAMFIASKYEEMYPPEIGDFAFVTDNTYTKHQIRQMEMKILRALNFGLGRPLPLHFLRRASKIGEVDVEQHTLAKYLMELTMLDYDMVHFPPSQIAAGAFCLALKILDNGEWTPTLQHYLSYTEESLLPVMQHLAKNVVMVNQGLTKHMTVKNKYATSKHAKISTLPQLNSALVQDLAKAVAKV
Sequence of Sphingosine 1-phosphate receptor 2 (O95136 whole entry): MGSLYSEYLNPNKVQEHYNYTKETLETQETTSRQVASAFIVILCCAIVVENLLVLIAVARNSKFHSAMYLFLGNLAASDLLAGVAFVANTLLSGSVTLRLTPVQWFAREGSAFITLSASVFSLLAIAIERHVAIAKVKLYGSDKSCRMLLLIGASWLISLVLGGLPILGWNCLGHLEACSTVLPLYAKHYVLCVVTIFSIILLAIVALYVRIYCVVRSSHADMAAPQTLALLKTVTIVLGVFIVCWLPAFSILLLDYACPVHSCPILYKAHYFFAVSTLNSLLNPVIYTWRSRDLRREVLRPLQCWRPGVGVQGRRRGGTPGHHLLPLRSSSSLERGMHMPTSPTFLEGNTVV

Take `O=C1NCCCc2c1oc1ccc(O)cc21`: in [1], the AC50 was 10.7 µM (active).
Regarding `O=C1C=C(c2ccccc2)C(=O)N1Nc1ccccc1`, the IC50 in assay [2] is 20.4 µM (active); at Beta-galactosidase it was > 66.6 µM (inactive); on Beta Lactamase, 18.7 µM (inactive); in [5] it was 45.8 µM (active); in assay [6], 1.68 µM (active). For the same molecule, the EC50 in assay [3] is 8.82 µM (active); in [4], > 112 µM (not active).
As for `CCCCCCCCCn1c2c(c(=N)c3c1CCC3)CCC2`, the concentration giving a half-maximal response (EC50) in the assay with BJ [7] was 1.15 µM (active); with BJ [8], 2.07 µM (active); in the assay with BJ [11], 8.37 µM (inconclusive); in assay [13] it was 0.728 µM (active); in assay [14] it was 3.16 µM (active); in [16], 0.561 µM (active). Moreover, the IC50 is 9.02 µM (active) in assay [9], 9.03 µM (active) in assay [10], 47.8 µM (inactive) in assay [12] and 7.18 µM (active) in assay [15].
For `COc1ccc(Cl)cc1NC(=O)c1cc(C2CC2)on1`, the EC50 in [17] is 0.00455 µM (active).
Regarding `COc1ccc(C(=O)NC(CC(=O)O)c2cccc(Cl)c2)cc1` (stereo not given), the IC50 at Hexokinase was > 25 µM (inactive).
Consider `Cc1cc(O)nc(-n2nc(C)cc2NC(=O)c2ccccc2Cl)n1`, for which the EC50 on Wee1-like protein kinase was > 16.6 µM (active); in assay [18], > 49.7 µM (inactive).
Consider `O=C1C2(Cl)C3(Cl)C4(Cl)C(Cl)(Cl)C5(Cl)C3(Cl)C1(Cl)C5(Cl)C24Cl` (stereo not given) [KEPONE], for which the CC50 was 22.6 µM (active) in [19] and 8.69 µM (active) in assay [20]. Besides, the AC50 in assay [21] is 2.68 µM (active).
